One assay concerns the target KRas G12D/Q61H double mutant (Homo sapiens (Human), UniProt P01116, G12D/Q61H). As to the kind of experiment: Ras GTP binding domain inhibition assay (labeled GTP). To be noted: 20 μM compound; KRas G12D/Q61H double mutant; read-out: % Inhibition at 20 μM of K-Ras mutant and wild-type protein, KRas G12D Q61H. The method, boiled down: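 Inhibition of labeled GTP binding is measured on immobilized His-KRas protein in Tris buffer pH 7.5 with 1 mM MgCl2 and 1 mM DTT.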
Chain of KRas G12D/Q61H double mutant (P01116-2 other isoform, or with tags, fused parts or gaps G12D/Q61H): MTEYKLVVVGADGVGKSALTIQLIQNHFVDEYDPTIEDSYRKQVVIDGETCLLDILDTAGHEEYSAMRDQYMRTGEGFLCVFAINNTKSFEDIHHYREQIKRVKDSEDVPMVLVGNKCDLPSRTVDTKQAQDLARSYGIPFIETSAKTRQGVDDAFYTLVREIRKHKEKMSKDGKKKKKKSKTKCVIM
Turning to `O=C(C1CCN(c2ccccc2[N+](=O)[O-])CC1)N1CCCC1C1CCCCC1` (stereo not drawn), the inhibition at 20 µM is 1 to 25%.
Regarding `COC(=O)C1CCN(S(=O)(=O)NCCOc2ccc(C(C)(C)C)cc2)CC1`, the inhibition at 20 µM lay within 25 to 50%.
On the same count and under the same terms, then `COc1ccc(CN(C)C(=O)c2cc(Br)c(Br)s2)c(OC)c1`, with 25 to 50%; and `FC(F)Oc1ccc(N2CCOC(c3ccc(Br)cc3)C2)nc1` (stereo not drawn), with 25 to 50%.
Still for that read-out and setting: then `FC(F)(F)C1CCCN(Cc2ccccc2CN2CCCC(C(F)(F)F)C2)C1` (stereo not drawn), with 25 to 50%.
Same read-out and setting: then `C=CCn1c(C)cc(C(=O)COC(=O)c2ccccc2Oc2ccccc2)c1C`, with 51 to 75%.
As for `O=C(CCCOc1ccc(Cl)cc1Cl)N1N=CCC1(O)C(F)(F)F` (stereo not drawn), the inhibition at 20 µM fell in the range of 25 to 50%.
Still for that read-out and setting: then `CC(CC(N)=O)Nc1cc(C(F)(F)F)nc(-c2ccccn2)n1` (stereo not drawn), with 1 to 25%; and `CC(C)(C)c1noc(COc2ccc(C(=O)c3ccc(F)cc3)cc2)n1`, with 25 to 50%; and `CC(C)(C)OC(=O)N1CCCN1c1nc(-c2cccs2)nc2ccccc12`, with 25 to 50%.
For the compound `O=C(CSCc1cccc(F)c1)Nc1ccc(-c2ccccc2)cc1`, the inhibition at 20 µM lay in the range of 25 to 50%.
Regarding `COCCN(Cc1ccccc1)CC(O)COC(c1ccc(OC)cc1)c1ccc(OC)cc1` (stereo not drawn), the inhibition at 20 µM was in the range of 1 to 25%.
On the same count and under the same terms, then `O=C(c1ccc(-c2ccccc2F)o1)N(Cc1ccco1)C1CCCC1`, with 51 to 75%; and `Cc1ccc(OCc2ccc(C(=O)N(CCC#N)CC3CCC3)o2)c(C)c1`, with 51 to 75%; and `O=C(NCC(F)(F)F)c1ccc(CN(Cc2cc(Cl)cc3c2OCCO3)C2CC2)cc1`, with 25 to 50%.
The same measure, in the same setting: then `Cc1n[nH]c(C2CN(C(=O)c3cnc(C)s3)CCO2)n1` (stereo not drawn), with 1 to 25%; and `CCNC(=O)COc1ccc(CN2CCN(C3CC3)c3ccc(F)cc32)cc1`, with 1 to 25%.
As for `O=C(COCC(F)(F)F)Nc1nnc(-c2ccccn2)[nH]1`, the inhibition at 20 µM lay in the range of 25 to 50%.
With `O=C(NN(Cc1ccccc1)Cc1ccccc1)c1n[nH]c(=O)c2ccccc12`, the inhibition at 20 µM lay within 25 to 50%.
Same read-out and setting: then `COc1ccc2c(c1)C(N(Cc1ccccc1)Cc1nc(CC(C)C)no1)CCO2` (stereo not drawn), with 25 to 50%.

Still in this assay, the particulars now being: 20 μM compound; read-out: % Inhibition at 20 μM KRas G12D Q61H.
As for `Nc1nc(-c2ccccn2)nn1C(=O)CN1CCS(=O)(=O)CC1`, the inhibition at 20 µM is 25 to 50%.
Still for that read-out and setting: the figure for `CCCOc1ccc(C(F)(F)F)cc1NCc1ncc(C)o1` is 25 to 50%; for `COc1ccccc1CN(Cc1cccs1)C(=O)c1ccc(-c2nnn[nH]2)cc1` it is 1 to 25%.
With `O=C(Cc1ccc2c(c1)CCCC2)Nc1nnc(-c2ccccn2)[nH]1`, the inhibition at 20 µM fell in the range of 25 to 50%.
Regarding `Cc1noc(C)c1CN(C(=O)c1ccc(COc2ccc(F)cc2)o1)c1ccccc1`, the inhibition at 20 µM was 25 to 50%.
Still for that read-out and setting: the figure for `COc1ccc(CCC(=O)Nc2nnc(-c3ccccn3)[nH]2)cc1OC` is 25 to 50%; for `O=C(Nc1nc(-c2ccccn2)cs1)c1cccc(-n2cnnn2)c1` it is 25 to 50%.
The same measure, in the same setting: then `CCOC(=O)NC1CCN(C(=O)c2csc3c(O)nc(N)nc23)CC1` [drawing 2667], with 1 to 25%; and `O=c1[nH]c(-c2ccccn2)nc2ccccc12`, with 25 to 50%.
In the case of `Nc1nc(O)c2scc(Br)c2n1` [drawing 2657], the inhibition at 20 µM fell in the range of 1 to 25%.
In the case of `CCc1noc(CNc2cc(C(=O)OC)cc(C(F)(F)F)c2)n1`, the inhibition at 20 µM lay within 25 to 50%.
Take `COc1ccc(CN2CCN(C(=O)c3csc4c(O)nc(-c5ccccn5)nc34)CC2)cc1` [drawing 2725]: the inhibition at 20 µM was 25 to 50%.
On the same count and under the same terms, the figure for `COCCOCCN(C)C(=O)c1csc2c(O)nc(N)nc12` is 1 to 25%.
The same measure, in the same setting: the figure for `Cc1nc(CN(Cc2ccccc2)Cc2ccccc2)no1` is 25 to 50%; for `O=C1COc2c(cccc2C(=O)Nc2nnc(-c3ccccn3)[nH]2)N1` it is 25 to 50%; for `Oc1nc(-c2ccccn2)nc2[nH]cnc12` [drawing 2696] it is 25 to 50%.
Take `CC(C(N)=O)N1CCOC(c2nc(-c3ccccc3)cs2)C1` (stereo not drawn): the inhibition at 20 µM fell in the range of 25 to 50%.
Same read-out and setting: the figure for `CCN(CC)CCC(C)Nc1nc(-c2ccccn2)nc2sccc12` (stereo not drawn) [drawing 2706] is 25 to 50%; for `CN(Cc1ccc(C(=O)NCC(F)(F)F)cc1)Cc1ccc([N+](=O)[O-])cc1` it is 25 to 50%; for `Cc1nc(-c2ccccn2)nc(NCCS(C)(=O)=O)c1C` it is 25 to 50%.
`O=C(c1csc2c(O)nc(-c3ccccn3)nc12)N1CCN(c2ccc(O)cc2)CC1`: the inhibition at 20 µM fell in the range of 25 to 50%.
With `CN(Cc1ccc(C(F)(F)F)cc1)Cc1cc([N+](=O)[O-])cc2c1OCOC2`, the inhibition at 20 µM lay within 1 to 25%.
On the same count and under the same terms, the figure for `COC(=O)c1cccc(NCc2nc(CC(C)C)no2)c1` is 25 to 50%; for `O=C(Nc1ccc(N2CCOCC2)cc1)c1ccccc1OCCOc1ccccc1` it is 1 to 25%; for `O=c1[nH]c(-c2ccccn2)nc2[nH]nnc12` it is 25 to 50%.
On to `O=S(=O)(NC(c1ccccc1)c1ccccn1)c1cc(C(F)(F)F)ccc1Cl` (stereo not drawn), for which the inhibition at 20 µM fell in the range of 25 to 50%.
As to `Cc1cnn(CCC(=O)Nc2nnc(-c3ccccn3)[nH]2)c1`, the inhibition at 20 µM was in the range of 25 to 50%.

Staying with this assay, now noted: 20 μM; read-out: KRas G12D Q61H % Inh.
Regarding `COc1ccc(CCC(=O)Nc2nnc(-c3ccccn3)[nH]2)cc1F` [drawing 2454], the inhibition at 20 µM was in the range of 51 to 75%.
The same measure, in the same setting: then `CC(C)NC(=O)Nc1cccc(C(=O)Nc2nnc(-c3ccccn3)[nH]2)c1` [drawing 2451], with 51 to 75%; and `O=C(Nc1nnc(-c2ccccn2)[nH]1)c1ccc(OCC2CC2)cc1` [drawing 2522], with 51 to 75%; and `CS(=O)(=O)N1CCCc2cc(C(=O)N3CCCc4c(O)nc(-c5ccccn5)nc43)ccc21` [drawing 2645], with 25 to 50%.
Take `Cc1ccc(O)c(CN(C)Cc2nccn2Cc2ccccc2)n1` [drawing 2615]: the inhibition at 20 µM is 51 to 75%.
The same measure, in the same setting: then `O=C(Cn1c(=O)[nH]c2ccccc21)Nc1nnc(-c2ccccn2)[nH]1` [drawing 2536], with 51 to 75%.
The same measure, in the same setting: then `Oc1ccc(C2(c3cccc(Cl)c3)CCCC2)cc1` [drawing 2620], with 25 to 50%; and `O=C(CCc1cnn(-c2ccccc2)c1)Nc1nnc(-c2ccccn2)[nH]1` [drawing 2450], with 51 to 75%.
In the case of `COc1cccc(CC(=O)Nc2nnc(-c3ccccn3)[nH]2)c1` [drawing 2460], the inhibition at 20 µM fell in the range of 51 to 75%.
The same measure, in the same setting: then `O=C(Nc1nnc(-c2ccccn2)[nH]1)C1CCCN(c2cnccn2)C1` (stereo not drawn) [drawing 2527], with 51 to 75%.
In the case of `CCCOc1ccc2ccccc2c1CN(C)S(=O)(=O)N1CC(C)OC(C)C1` (stereo not drawn) [drawing 2626], the inhibition at 20 µM fell in the range of 25 to 50%.
Take `C[C@H](NS(=O)(=O)c1ccccc1F)C(=O)Nc1nnc(-c2ccccn2)[nH]1` [drawing 2478]: the inhibition at 20 µM was in the range of 51 to 75%.
Regarding `Cc1c(C(=O)Nc2nnc(-c3ccccn3)[nH]2)oc2c1C(=O)CCC2` [drawing 2477], the inhibition at 20 µM was 51 to 75%.
Same read-out and setting: the figure for `O=C(Cc1cccc(F)c1)Nc1nnc(-c2ccccn2)[nH]1` [drawing 2497] is 51 to 75%; for `CCN(CC)S(=O)(=O)c1ccc(NCCOC)c(C(=O)NCCSCc2ccc(C)cc2)c1` [drawing 2633] it is 25 to 50%.
On the same count and under the same terms, then `CCN(CC)S(=O)(=O)c1cc(C)c(C)c(NC(=O)CCc2c(C)nc(-c3ccccn3)nc2O)c1` [drawing 2602], with 51 to 75%.

These data come from patent US10940139B2, “Compounds that interact with the Ras superfamily for the treatment of cancers, inflammatory diseases, rasopathies, and fibrotic disease” (Shy Therapeutics LLC, priority 2017, dated 2021).
